Experimental data as given in patent US9546156B2, “N-bicyclic aryl,N'-pyrazolyl urea, thiourea, guanidine cyanoguanidine compounds as TrkA kinase inhibitors” (Array BioPharma Inc., priority 2012, dated 2017).

Key:
Test in all cases: Off-target kinase profiling (KinaseProfiler)
Format in all cases: biochemical
Conditions in all cases: 10 μM, ATP near Km
DAPK2 = target: T1, DAPK2 (Homo sapiens, UniProt Q9UIK4)
T1 construct: purchased Millipore, Inc. (KinaseProfiler service)
Summary of the method: (§1)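 Broad-panel profiling at one concentration (10 μM). The ATP level was adjusted to approximate each kinase's Km. Values are POC averaged over duplicates.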

PAK6 = target: T2, PAK6 (Homo sapiens, UniProt Q9NQU5)
T2 construct: purchased Millipore, Inc. (KinaseProfiler service)
Summary of the method: as §1

CAMK2b = target: T3, CAMK2b (Homo sapiens, UniProt Q13554)
T3 construct: purchased Millipore, Inc. (KinaseProfiler service)
Summary of the method: as §1

CAMK1 = target: T4, CAMK1 (Homo sapiens, UniProt Q14012)
T4 construct: purchased Millipore, Inc. (KinaseProfiler service)
Summary of the method: as §1

CAMK4 = target: T5, CAMK4 (Homo sapiens, UniProt Q16566)
T5 construct: purchased Millipore, Inc. (KinaseProfiler service)
Summary of the method: as §1

NEK3 = target: T6, NEK3 (Homo sapiens, UniProt P51956)
T6 construct: purchased Millipore, Inc. (KinaseProfiler service)
Summary of the method: as §1

EphA1 = target: T7, EphA1 (Homo sapiens, UniProt P21709)
T7 construct: purchased Millipore, Inc. (KinaseProfiler service)
Summary of the method: as §1

CK1gamma1 = target: T8, CK1gamma1 (Homo sapiens, UniProt Q9HCP0)
T8 construct: purchased Millipore, Inc. (KinaseProfiler service)
Summary of the method: as §1

IRAK4 = target: T9, IRAK4 (Homo sapiens, UniProt Q9NWZ3)
T9 construct: purchased Millipore, Inc. (KinaseProfiler service)
Summary of the method: as §1

Ron = target: T10, Ron (Homo sapiens, UniProt Q04912)
T10 construct: purchased Millipore, Inc. (KinaseProfiler service)
Summary of the method: as §1

PKCiota = target: T11, PKCiota (Homo sapiens, UniProt P41743)
T11 construct: purchased Millipore, Inc. (KinaseProfiler service)
Summary of the method: as §1

Fes = target: T12, Fes (Homo sapiens, UniProt P07332)
T12 construct: purchased Millipore, Inc. (KinaseProfiler service)
Summary of the method: as §1

CAMK1d = target: T13, CAMK1d (Homo sapiens, UniProt Q8IU85)
T13 construct: purchased Millipore, Inc. (KinaseProfiler service)
Summary of the method: as §1

MYLK = target: T14, MYLK (Homo sapiens, UniProt Q15746)
T14 construct: purchased Millipore, Inc. (KinaseProfiler service)
Summary of the method: as §1

TBK1 = target: T15, TBK1 (Homo sapiens, UniProt Q9UHD2)
T15 construct: purchased Millipore, Inc. (KinaseProfiler service)
Summary of the method: as §1

EphB4 = target: T16, EphB4 (Homo sapiens, UniProt P54760)
T16 construct: purchased Millipore, Inc. (KinaseProfiler service)
Summary of the method: as §1

MuSK = target: T17, MuSK (Homo sapiens, UniProt O15146)
T17 construct: purchased Millipore, Inc. (KinaseProfiler service)
Summary of the method: as §1

Hck = target: T18, Hck (Homo sapiens, UniProt P08631)
T18 construct: purchased Millipore, Inc. (KinaseProfiler service)
Summary of the method: as §1

Abl-P = target: T19, Abl-P (Homo sapiens, UniProt P00519)
T19 construct: purchased Millipore, Inc. (KinaseProfiler service)
Summary of the method: as §1

HIPK1 = target: T20, HIPK1 (Homo sapiens, UniProt Q86Z02)
T20 construct: purchased Millipore, Inc. (KinaseProfiler service)
Summary of the method: as §1

Lyn = target: T21, Lyn (Homo sapiens, UniProt P07948)
T21 construct: purchased Millipore, Inc. (KinaseProfiler service)
Summary of the method: as §1

CDK5/p35 = target: T22, CDK5/p35 (Homo sapiens, UniProt Q00535)
T22 construct: purchased Millipore, Inc. (KinaseProfiler service)
Summary of the method: as §1

CK2 = target: T23, CK2 (Homo sapiens, UniProt P68400)
T23 construct: purchased Millipore, Inc. (KinaseProfiler service)
Summary of the method: as §1

PKCalpha = target: T24, PKCalpha (Homo sapiens, UniProt P17252)
T24 construct: purchased Millipore, Inc. (KinaseProfiler service)
Summary of the method: as §1

CDK3/cyclinE = target: T25, CDK3/cyclinE (Homo sapiens, UniProt Q00526)
T25 construct: purchased Millipore, Inc. (KinaseProfiler service)
Summary of the method: as §1

MST1 = target: T26, MST1 (Homo sapiens, UniProt Q13043)
T26 construct: purchased Millipore, Inc. (KinaseProfiler service)
Summary of the method: as §1

TAO2 = target: T27, TAO2 (Homo sapiens, UniProt Q9UL54)
T27 construct: purchased Millipore, Inc. (KinaseProfiler service)
Summary of the method: as §1

Flt1 = target: T28, Flt1 (Homo sapiens, UniProt P17948)
T28 construct: purchased Millipore, Inc. (KinaseProfiler service)
Summary of the method: as §1

Pim-3 = target: T29, Pim-3 (Homo sapiens, UniProt Q86V86)
T29 construct: purchased Millipore, Inc. (KinaseProfiler service)
Summary of the method: as §1

TAK1 = target: T30, TAK1 (Homo sapiens, UniProt O43318)
T30 construct: purchased Millipore, Inc. (KinaseProfiler service)
Summary of the method: as §1

PRK2 = target: T31, PRK2 (Homo sapiens, UniProt Q16513)
T31 construct: purchased Millipore, Inc. (KinaseProfiler service)
Summary of the method: as §1

c-RAF = target: T32, c-RAF (Homo sapiens, UniProt P04049, Y340D/Y341D)
T32 construct: purchased Millipore, Inc. (KinaseProfiler service)
Summary of the method: as §1

Fyn = target: T33, Fyn (Homo sapiens, UniProt P06241)
T33 construct: purchased Millipore, Inc. (KinaseProfiler service)
Summary of the method: as §1

T20 sequence (Q86Z02 whole entry): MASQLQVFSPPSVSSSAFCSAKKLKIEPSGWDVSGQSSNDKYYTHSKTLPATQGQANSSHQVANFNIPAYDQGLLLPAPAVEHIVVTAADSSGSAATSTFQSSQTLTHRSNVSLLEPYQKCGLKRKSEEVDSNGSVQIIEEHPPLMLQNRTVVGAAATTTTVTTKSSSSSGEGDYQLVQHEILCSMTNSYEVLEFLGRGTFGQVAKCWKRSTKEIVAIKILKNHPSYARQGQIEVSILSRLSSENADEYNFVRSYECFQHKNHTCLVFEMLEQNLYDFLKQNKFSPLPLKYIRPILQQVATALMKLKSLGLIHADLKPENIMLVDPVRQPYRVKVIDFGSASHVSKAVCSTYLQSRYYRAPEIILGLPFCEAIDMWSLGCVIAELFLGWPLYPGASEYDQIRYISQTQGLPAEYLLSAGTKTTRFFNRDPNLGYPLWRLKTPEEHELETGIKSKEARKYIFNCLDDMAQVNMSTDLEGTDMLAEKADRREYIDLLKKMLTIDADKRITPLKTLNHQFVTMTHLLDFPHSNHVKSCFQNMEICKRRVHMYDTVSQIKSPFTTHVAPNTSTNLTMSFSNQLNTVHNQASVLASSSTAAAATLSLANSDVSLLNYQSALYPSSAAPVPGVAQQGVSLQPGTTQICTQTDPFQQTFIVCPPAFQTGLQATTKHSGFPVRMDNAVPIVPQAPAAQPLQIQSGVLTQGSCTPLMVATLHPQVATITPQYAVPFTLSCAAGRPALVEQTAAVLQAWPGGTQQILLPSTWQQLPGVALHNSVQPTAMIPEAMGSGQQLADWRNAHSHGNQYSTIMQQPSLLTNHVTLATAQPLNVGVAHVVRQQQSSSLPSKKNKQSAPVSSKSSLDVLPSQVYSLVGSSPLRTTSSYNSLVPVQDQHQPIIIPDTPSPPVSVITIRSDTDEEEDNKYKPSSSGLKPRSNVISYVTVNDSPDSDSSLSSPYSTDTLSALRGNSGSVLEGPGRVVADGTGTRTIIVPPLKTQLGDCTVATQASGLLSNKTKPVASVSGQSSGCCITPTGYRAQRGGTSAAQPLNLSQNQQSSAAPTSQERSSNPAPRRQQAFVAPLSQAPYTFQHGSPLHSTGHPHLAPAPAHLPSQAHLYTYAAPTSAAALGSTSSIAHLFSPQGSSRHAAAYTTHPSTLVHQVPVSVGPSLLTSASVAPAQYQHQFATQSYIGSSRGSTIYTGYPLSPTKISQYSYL
T16 sequence (P54760 16-987): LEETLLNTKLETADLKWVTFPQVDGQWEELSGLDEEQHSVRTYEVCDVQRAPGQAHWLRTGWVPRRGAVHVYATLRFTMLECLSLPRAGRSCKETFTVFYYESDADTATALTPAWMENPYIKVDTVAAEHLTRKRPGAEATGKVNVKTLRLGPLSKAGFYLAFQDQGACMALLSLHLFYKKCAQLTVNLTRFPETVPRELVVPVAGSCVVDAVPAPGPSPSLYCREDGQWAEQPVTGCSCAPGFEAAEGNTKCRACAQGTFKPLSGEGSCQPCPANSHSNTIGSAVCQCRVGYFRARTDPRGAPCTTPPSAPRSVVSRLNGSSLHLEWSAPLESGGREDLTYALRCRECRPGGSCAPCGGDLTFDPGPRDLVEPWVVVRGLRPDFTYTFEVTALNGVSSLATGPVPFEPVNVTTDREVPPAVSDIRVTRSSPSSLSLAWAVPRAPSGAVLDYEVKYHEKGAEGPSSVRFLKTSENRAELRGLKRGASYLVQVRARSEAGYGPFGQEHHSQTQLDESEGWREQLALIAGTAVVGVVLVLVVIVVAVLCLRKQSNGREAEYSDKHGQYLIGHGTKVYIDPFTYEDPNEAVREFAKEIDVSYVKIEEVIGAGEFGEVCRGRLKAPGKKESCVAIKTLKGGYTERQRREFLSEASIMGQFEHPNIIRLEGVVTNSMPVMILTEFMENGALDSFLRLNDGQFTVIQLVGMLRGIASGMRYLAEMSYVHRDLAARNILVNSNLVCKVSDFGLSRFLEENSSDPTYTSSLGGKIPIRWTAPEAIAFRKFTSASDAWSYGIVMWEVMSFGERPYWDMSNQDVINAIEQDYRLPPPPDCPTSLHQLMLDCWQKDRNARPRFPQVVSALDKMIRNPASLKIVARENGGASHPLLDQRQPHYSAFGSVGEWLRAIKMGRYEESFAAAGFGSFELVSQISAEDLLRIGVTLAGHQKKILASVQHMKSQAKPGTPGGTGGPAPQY
T6 sequence (P51956 whole entry): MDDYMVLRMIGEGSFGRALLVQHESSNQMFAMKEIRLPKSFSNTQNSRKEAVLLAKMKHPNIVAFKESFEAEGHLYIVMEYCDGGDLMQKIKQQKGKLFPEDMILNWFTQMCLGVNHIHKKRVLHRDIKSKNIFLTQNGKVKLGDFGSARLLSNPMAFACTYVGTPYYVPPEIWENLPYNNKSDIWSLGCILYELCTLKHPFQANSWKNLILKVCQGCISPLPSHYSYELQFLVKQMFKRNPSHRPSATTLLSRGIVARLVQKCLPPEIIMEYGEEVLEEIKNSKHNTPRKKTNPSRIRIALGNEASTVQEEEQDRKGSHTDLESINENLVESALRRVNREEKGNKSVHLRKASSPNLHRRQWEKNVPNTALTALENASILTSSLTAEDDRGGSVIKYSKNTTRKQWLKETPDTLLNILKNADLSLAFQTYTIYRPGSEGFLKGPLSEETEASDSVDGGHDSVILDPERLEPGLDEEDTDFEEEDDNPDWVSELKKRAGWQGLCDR
T5 sequence (Q16566 whole entry): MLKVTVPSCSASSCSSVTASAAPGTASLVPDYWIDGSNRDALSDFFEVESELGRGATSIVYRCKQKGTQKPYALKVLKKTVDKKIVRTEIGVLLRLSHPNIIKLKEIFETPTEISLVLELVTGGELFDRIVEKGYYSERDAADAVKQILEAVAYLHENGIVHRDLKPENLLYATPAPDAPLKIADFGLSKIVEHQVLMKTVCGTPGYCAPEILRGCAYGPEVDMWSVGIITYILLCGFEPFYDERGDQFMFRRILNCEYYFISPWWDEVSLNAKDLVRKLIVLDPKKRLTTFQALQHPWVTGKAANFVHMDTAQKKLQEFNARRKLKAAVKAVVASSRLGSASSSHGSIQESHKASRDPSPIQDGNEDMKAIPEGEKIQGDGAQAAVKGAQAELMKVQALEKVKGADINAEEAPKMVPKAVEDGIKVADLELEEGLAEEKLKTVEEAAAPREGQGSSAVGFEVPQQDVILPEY
T11 sequence (P41743 whole entry): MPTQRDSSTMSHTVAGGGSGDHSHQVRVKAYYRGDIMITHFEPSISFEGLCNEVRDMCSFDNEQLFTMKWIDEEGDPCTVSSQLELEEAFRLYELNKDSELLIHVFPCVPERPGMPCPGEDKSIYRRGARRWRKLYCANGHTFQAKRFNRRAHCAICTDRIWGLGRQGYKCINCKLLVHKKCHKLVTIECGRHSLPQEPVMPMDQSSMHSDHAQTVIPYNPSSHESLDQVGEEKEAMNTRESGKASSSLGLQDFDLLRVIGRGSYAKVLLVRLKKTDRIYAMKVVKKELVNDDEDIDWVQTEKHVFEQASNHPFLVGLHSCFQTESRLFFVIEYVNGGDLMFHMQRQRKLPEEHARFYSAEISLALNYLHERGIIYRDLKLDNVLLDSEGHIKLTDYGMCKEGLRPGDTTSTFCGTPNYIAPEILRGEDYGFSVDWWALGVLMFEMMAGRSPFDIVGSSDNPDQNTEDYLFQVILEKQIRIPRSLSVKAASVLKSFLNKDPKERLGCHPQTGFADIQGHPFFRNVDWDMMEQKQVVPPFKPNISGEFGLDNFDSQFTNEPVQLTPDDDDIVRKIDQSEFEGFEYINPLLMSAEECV
T13 sequence (Q8IU85 whole entry): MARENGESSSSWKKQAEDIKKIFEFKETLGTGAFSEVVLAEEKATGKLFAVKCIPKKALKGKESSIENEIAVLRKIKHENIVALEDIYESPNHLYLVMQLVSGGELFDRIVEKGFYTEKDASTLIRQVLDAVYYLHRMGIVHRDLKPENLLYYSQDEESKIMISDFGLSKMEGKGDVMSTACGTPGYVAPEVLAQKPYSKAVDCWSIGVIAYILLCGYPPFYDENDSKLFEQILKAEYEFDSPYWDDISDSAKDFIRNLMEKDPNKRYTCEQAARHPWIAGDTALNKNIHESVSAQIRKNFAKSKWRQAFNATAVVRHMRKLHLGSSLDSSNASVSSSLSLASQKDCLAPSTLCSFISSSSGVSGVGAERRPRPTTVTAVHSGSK

Question: Which results are given for `COCc1ccc2cccc(NC(=O)Nc3c(C)c(-c4cnn(C)c4)nn3-c3ccccc3)c2c1` [Example 16, 1-(1′,4-dimethyl-1-phenyl-1H,1′H-[3,4′-bipyrazol]-5-yl)-3-(7-(methoxymethyl)naphthalen-1-yl)urea]?
Answer: Avg POC (DAPK2): 105.5 POC; Avg POC (PAK6): 125 POC; Avg POC (CAMK2b): 105 POC; Avg POC (CAMK1): 106 POC; Avg POC (CAMK4): 127 POC; Avg POC (NEK3): 122 POC; Avg POC (EphA1): 104.5 POC; Avg POC (CK1gamma1): 115.5 POC; Avg POC (IRAK4): 175.5 POC; Avg POC (Ron): 117 POC; Avg POC (PKCiota): 109 POC; Avg POC (Fes): 117.5 POC; Avg POC (CAMK1d): 134.5 POC; Avg POC (MYLK): 109.5 POC; Avg POC (TBK1): 121.5 POC; Avg POC (EphB4): 145.5 POC; Avg POC (MuSK): 94 POC; Avg POC (Hck): 135.5 POC; Avg POC (Abl-P): 147 POC; Avg POC (HIPK1): 119 POC; Avg POC (Lyn): 112 POC; Avg POC (CDK5/p35): 123.5 POC; Avg POC (CK2): 114.5 POC; Avg POC (PKCalpha): 97 POC; Avg POC (CDK3/cyclinE): 125 POC; Avg POC (MST1): 111.5 POC; Avg POC (TAO2): 119.5 POC; Avg POC (Flt1): 115.5 POC; Avg POC (Pim-3): 113.5 POC; Avg POC (TAK1): 110.5 POC; Avg POC (PRK2): 142.5 POC; Avg POC (c-RAF): 114 POC; Avg POC (Fyn): 112.5 POC
